In the supplement of paper PMC8671470:
± gives the standard deviation of the averaged measurements.

What was measured:
Conditions in all cases: 72 h
[1] = system: HL-60; test: area under dose-response curve (viability, 1 nM-10 uM) (fraction (0-1)); higher = more sensitive
How it was run: (§1)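 HL-60 cells grown in RPMI 1640 with 10% FBS were rescreened against the full library in 384-well plates, in duplicate, at five tenfold concentrations from 1 to 10,000 nM, alongside DMSO or 100 nM of one of three metabolic inhibitors for 72 h at 37 °C, 5% CO2. Reference wells contained DMSO or 10 μM proteasome inhibitor. Viability was read with CellTiter-Glo and normalised to these reference wells, and where reported, area under the curve was taken from four-parameter log-logistic fits in drc and PharmacoGx.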

[2] = system: HL-60; test: cell viability (% survival relative to DMSO control); higher = less cytotoxic
How it was run: as §1

[3] = system: myeloid leukemia patient primary cells Pat.3; test: cell viability (% survival relative to DMSO control); higher = less cytotoxic
How it was run: (§2)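 Mononuclear cells from patients with AML or CML were thawed, purified on Ficoll and placed in RPMI 1640 with 10% FBS at 10,000 cells/well on 384-well plates. The plates came pre-printed with 70 compounds at five tenfold concentrations spanning 1–10,000 nM, in duplicate, and cells were exposed for 72 h. CellTiter-Glo gave viability, scaled between DMSO wells and wells with 10 μM proteasome inhibitor. Where reported, area under the curve was obtained from log-logistic fits with four parameters using the drc and PharmacoGx R packages.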

[4] = system: myeloid leukemia patient primary cells Pat.4; test: as above
How it was run: as §2

[5] = system: myeloid leukemia patient primary cells Pat.11; test: as above
How it was run: as §2

[6] = system: myeloid leukemia patient primary cells Pat.15; test: as above
How it was run: as §2

[7] = system: myeloid leukemia patient primary cells Pat.9; test: as above
How it was run: as §2

[8] = system: myeloid leukemia patient primary cells Pat.10; test: as above
How it was run: as §2

[9] = system: myeloid leukemia patient primary cells Pat.1; test: as above
How it was run: as §2

[10] = system: myeloid leukemia patient primary cells Pat.2; test: as above
How it was run: as §2

[11] = system: myeloid leukemia patient primary cells Pat.12; test: as above
How it was run: as §2

[12] = system: myeloid leukemia patient primary cells Pat.6; test: as above
How it was run: as §2

[13] = system: myeloid leukemia patient primary cells Pat.14; test: as above
How it was run: as §2

[14] = system: myeloid leukemia patient primary cells Pat.7; test: as above
How it was run: as §2

[15] = system: myeloid leukemia patient primary cells Pat.5; test: as above
How it was run: as §2

[16] = system: myeloid leukemia patient primary cells Pat.13; test: as above
How it was run: as §2

[17] = system: myeloid leukemia patient primary cells Pat.8; test: as above
How it was run: as §2

Nc1ccn([C@@H]2O[C@H](CO)[C@@H](O)C2(F)F)c(=O)n1 [Gemcitabine]
Conditions	area under dose-response curve, co-treatment: AZD3965 100 nM	area under dose-response curve, co-treatment: DMSO vehicle	area under dose-response curve, co-treatment: GSK2194069 100 nM	area under dose-response curve, co-treatment: pictilisib 100 nM	cell viability, 1 nM [%]	cell viability, 10 nM [%]	cell viability, 100 nM [%]	cell viability, 1000 nM [%]	cell viability, 10000 nM [%]
[1]	0.648	0.631	0.634	0.663	–	–	–	–	–
[3]	–	–	–	–	61.9	22.1	25	7.9	4.31
[4]	–	–	–	–	75.4	93.4	82.8	62.2	32.2
[5]	–	–	–	–	95.3	91.6	> 100	83.6	67.2
[6]	–	–	–	–	96.3	80.8	82.5	78	41.8
[7]	–	–	–	–	3.95	6.11	56.7	15.4	6.78
[8]	–	–	–	–	67.4	32.6	64.3	45.5	7.03
[9]	–	–	–	–	83.4	92.9	99.6	76.6	54.5
[10]	–	–	–	–	90.2	95.4	98.4	82.9	48.5
[11]	–	–	–	–	96.3	95.9	98.4	92.4	82.8
[12]	–	–	–	–	77.8	84	98.2	91.2	81.8
[13]	–	–	–	–	52.8	44.5	> 100	67.4	25.8
[14]	–	–	–	–	52.6	3.48	95.9	65	16.3
[15]	–	–	–	–	4.78	2.01	88.3	27.6	2.39
[16]	–	–	–	–	89.5	84.5	90.2	86.3	36.4
[17]	–	–	–	–	76.5	71.6	91.5	85.4	33.7

cell viability [%], [2]
Conditions	0.001 µM	0.01 µM	0.1 µM	1 µM	10 µM
co-treatment: AZD3965 100 nM	101 ± 4.7	82.7 ± 21	5.92 ± 1.7	4.29 ± 1.1	3.15 ± 0.62
co-treatment: DMSO vehicle	99.76 ± 0.9	85.6 ± 14	7.57 ± 0.71	6.18 ± 1.1	3.121 ± 0.023
co-treatment: GSK2194069 100 nM	104 ± 3.8	84.92 ± 0.64	7.69 ± 2.4	5.54 ± 1.7	3.32 ± 1.2
co-treatment: pictilisib 100 nM	97.8 ± 12	74.5 ± 11	6.77 ± 1.7	5.09 ± 0.17	2.52 ± 0.74

C=C1NC(=O)c2cc(CN(C)c3ccc(C(=O)N[C@@H](CCC(=O)O)C(=O)O)s3)ccc2N1 [Raltitrexed]
Conditions	area under dose-response curve, co-treatment: AZD3965 100 nM	area under dose-response curve, co-treatment: DMSO vehicle	area under dose-response curve, co-treatment: GSK2194069 100 nM	area under dose-response curve, co-treatment: pictilisib 100 nM	cell viability, 1 nM [%]	cell viability, 10 nM [%]	cell viability, 100 nM [%]	cell viability, 1000 nM [%]	cell viability, 10000 nM [%]
[1]	0.598	0.412	0.42	0.432	–	–	–	–	–
[3]	–	–	–	–	81.1	> 100	58.5	38.7	58.7
[4]	–	–	–	–	80.7	> 100	94.1	97.6	> 100
[5]	–	–	–	–	93.9	97.3	99.3	97.4	99.2
[6]	–	–	–	–	81.4	90	89.2	95.1	> 100
[7]	–	–	–	–	40.5	84	81.9	54.5	72.8
[8]	–	–	–	–	54.5	74.6	96.5	> 100	89.9
[9]	–	–	–	–	79.1	96.9	99.9	93.7	> 100
[10]	–	–	–	–	95.5	95	> 100	99.7	98.5
[11]	–	–	–	–	86.9	96.9	> 100	95.9	98.6
[12]	–	–	–	–	90.3	98.1	> 100	> 100	> 100
[13]	–	–	–	–	71	94.5	> 100	90.2	92.1
[14]	–	–	–	–	64.8	> 100	97.1	85.1	> 100
[15]	–	–	–	–	43.3	90.4	> 100	87	92.7
[16]	–	–	–	–	> 100	85.4	> 100	92.6	95.5
[17]	–	–	–	–	90.8	85.5	87.2	87.3	> 100

cell viability [%], [2]
Conditions	0.001 µM	0.01 µM	0.1 µM	1 µM	10 µM
co-treatment: AZD3965 100 nM	99.38 ± 0.65	74.1 ± 32	76.3 ± 41	25.7 ± 1.2	24.2 ± 2.7
co-treatment: DMSO vehicle	101 ± 4.5	88.5 ± 22	55.7 ± 5.9	31.6 ± 6.8	27.6 ± 0.44
co-treatment: GSK2194069 100 nM	98.5 ± 9.8	79.7 ± 24	53.7 ± 6.4	30.6 ± 6.8	23.3 ± 6
co-treatment: pictilisib 100 nM	101 ± 4.3	78.4 ± 35	51.8 ± 1.8	34.2 ± 6.4	26.11 ± 0.13

O=C(c1c2ccccc2cc2ccccc12)N1CCC(N2CCC[C@@H](C(=O)N3CCOCC3)C2)CC1
Conditions	area under dose-response curve, co-treatment: AZD3965 100 nM	area under dose-response curve, co-treatment: DMSO vehicle	area under dose-response curve, co-treatment: GSK2194069 100 nM	area under dose-response curve, co-treatment: pictilisib 100 nM	cell viability, 1 nM [%]	cell viability, 10 nM [%]	cell viability, 100 nM [%]	cell viability, 1000 nM [%]	cell viability, 10000 nM [%]
[1]	< 0.0301	< 0.0301	< 0.0301	< 0.0301	–	–	–	–	–
[3]	–	–	–	–	> 100	96.9	> 100	52.6	78.8
[4]	–	–	–	–	92.6	95	90.2	65.1	60.7
[5]	–	–	–	–	99.3	> 100	92.5	72.6	98
[6]	–	–	–	–	93.9	94.5	84.5	71.3	88.6
[7]	–	–	–	–	63.1	88.4	77.5	2.84	71.4
[8]	–	–	–	–	88.3	67.9	78.7	29.7	80.8
[9]	–	–	–	–	> 100	83	> 100	58.3	96.7
[10]	–	–	–	–	94.4	99.4	98	75.4	98.1
[11]	–	–	–	–	> 100	92	99.7	80.6	96.9
[12]	–	–	–	–	99.8	96.8	96.6	74.9	96.6
[13]	–	–	–	–	88.9	98.9	98.2	56.4	94.4
[14]	–	–	–	–	94.1	87.2	87.3	19	76.8
[15]	–	–	–	–	89.3	67.2	94.9	0.265	69.8
[16]	–	–	–	–	85.6	89.6	92.9	62.8	86.7
[17]	–	–	–	–	87.7	> 100	93.3	69.3	87.5

cell viability [%], [2]
Conditions	0.001 µM	0.01 µM	0.1 µM	1 µM	10 µM
co-treatment: AZD3965 100 nM	93.6 ± 7.8	96.9 ± 4.1	102 ± 0.61	101 ± 3.2	83.4 ± 2.8
co-treatment: DMSO vehicle	103 ± 4	100 ± 2.3	105.5 ± 0.56	101 ± 3.9	94.5 ± 2
co-treatment: GSK2194069 100 nM	92.4 ± 5.2	95.1 ± 1.6	98.29 ± 0.17	122 ± 30	95.7 ± 2.4
co-treatment: pictilisib 100 nM	93.4 ± 20	100 ± 17	103 ± 1.5	98.8 ± 13	78.8 ± 1.9
